Results published in patent US20140329912A1, “CONTRACEPTIVE COMPOSITIONS AND METHODS OF CONTRACEPTION” (INTEGRITY PHARMACEUTICALS, LLC, priority 2011, published 2014).

System: Sperms
Assay: Toxicity screening: cell viability by MTS assay
Assay type: cell-based, mice
Conditions: for Average absorbance of cell-reduced MTS at 490 nm: average of trials 1-3; for Corrected average absorbance of cell-reduced MTS at 490 nm: culture media background subtracted
Protocol: Male BALB/c mice (12-16 week old) were euthanized by CO2-inhalation. The cauda epididymes was clipped and the upper portions of the vas deferens freed from surrounding tissue. Three-four cuts were made using scissors and forceps across the epididymes and several cuts along the length of the vas deferens. Sperm were allowed to swim out of the tissue. The dish was placed in a 5% CO2 incubator set at 37° C. for 10-15 minutes. The solution of sperm was diluted (50 μl sperm+450 μl complete medium) in Whittens/HCO3/BSA. Sperm was removed from the very top or sides of sperm drop to obtain the sperm with highest motility. The dish was then returned to the 5% CO2 incubator set at 37° C. to allow the sperm to capacitate for 1-3 hrs prior to use.
In addition, cell viability with n-propyl bromide was measured by MTS assay (Promega, Madison, Wis.). MTS [3-(4,5-dimethylthiazol-2-yl)-5-(3-carboxymethoxyphenyl)-2-(4-sulfophenyl)-2H-tetrazolium, inner salt] was utilized according to the manufacturer's instructions. The culture growth medium consisted of Whittens-HEPES complete media, (pH 7.2-7.4) prepared and supplemented with 30 mM NaHCO3 and 10 mg/mL BSA (Bovine Serum Albumin, Sigma A0281, fatty acid free). 250 mL of Whittens-Hepes complete media includes 1461 mg of NaCl, 87.6 mg of KCl, 40.8 mg of KH2PO4, 36.1 mg of MgSO4, 247.8 mg of glucose (dextrose), 22.01 mg of pyruvic acid, 130.92 mg of lactic acid (hemi-Ca), and 1191.5 mg of HEPES. After treatments of the sperms, 30 μL of MTS solution was added to each well and pipetted up and down for ten times to ensure properly mixing and incubation was prolonged for 2 h at 37° C., 5% CO2.
Absorbance observations for trials 1-3 and calculated average are expressed as optical density. The absorbance of cell-reduced MTS was read at 490 nm on a spectrophotometer Spectra Max Plus 384, and optical density for absorbance readings is provided in Table II. Absorbance is directly proportional to the number of living cells in culture. Thus, a reduction in absorbance normalized to a control indicates toxicity to a cell. Background absorbance was measured for the culture media only in three trials. An average absorbance was calculated from the three trials. The average optical density for the three trials for the culture media (background) was then subtracted from the average optical density of the various concentration assays for n-propyl bromide (expressed in terms of ppm of n-propyl bromide). Three control trials using only phosphate buffered saline were also measured. The corrected, average optical density of each of the experimental assays was then compared to the corrected, average optical density of the control (PBS only) assays. The comparison is expressed as the percentage of MTS reduction relative to the normalized absorbance of control samples.

## CCCBr [n-propyl bromide, 1-bromopropane]
5 ppm
  Absorbance of cell-reduced MTS at 490 nm, Trial 2: 0.3 optical density
  Absorbance of cell-reduced MTS at 490 nm, Trial 3: 0.4 optical density
  Average absorbance of cell-reduced MTS at 490 nm: 0.3 optical density
  Corrected average absorbance of cell-reduced MTS at 490 nm: 0.1 optical density
12.5 ppm
  % of control (MTS reduction relative to PBS only control): 100%
  Absorbance of cell-reduced MTS at 490 nm, Trial 1: 0.4 optical density
  Absorbance of cell-reduced MTS at 490 nm, Trial 2: 0.4 optical density
  Absorbance of cell-reduced MTS at 490 nm, Trial 3: 0.1 optical density
  Average absorbance of cell-reduced MTS at 490 nm: 0.3 optical density
  Corrected average absorbance of cell-reduced MTS at 490 nm: 0.1 optical density
25 ppm
  % of control (MTS reduction relative to PBS only control): 100%
  Absorbance of cell-reduced MTS at 490 nm, Trial 1: 0.3 optical density
  Absorbance of cell-reduced MTS at 490 nm, Trial 2: 0.4 optical density
  Absorbance of cell-reduced MTS at 490 nm, Trial 3: 0.2 optical density
  Average absorbance of cell-reduced MTS at 490 nm: 0.3 optical density
  Corrected average absorbance of cell-reduced MTS at 490 nm: 0.1 optical density
50 ppm
  % of control (MTS reduction relative to PBS only control): 100%
  Absorbance of cell-reduced MTS at 490 nm, Trial 1: 0.2 optical density
  Absorbance of cell-reduced MTS at 490 nm, Trial 2: 0.5 optical density
  Absorbance of cell-reduced MTS at 490 nm, Trial 3: 0.1 optical density
  Average absorbance of cell-reduced MTS at 490 nm: 0.3 optical density
  Corrected average absorbance of cell-reduced MTS at 490 nm: 0.1 optical density
100 ppm
  % of control (MTS reduction relative to PBS only control): 400%
  Absorbance of cell-reduced MTS at 490 nm, Trial 1: 0.4 optical density
  Absorbance of cell-reduced MTS at 490 nm, Trial 2: 0.6 optical density
  Absorbance of cell-reduced MTS at 490 nm, Trial 3: 0.7 optical density
  Average absorbance of cell-reduced MTS at 490 nm: 0.6 optical density
  Corrected average absorbance of cell-reduced MTS at 490 nm: 0.4 optical density
200 ppm
  % of control (MTS reduction relative to PBS only control): 600%
  Absorbance of cell-reduced MTS at 490 nm, Trial 1: 0.8 optical density
  Absorbance of cell-reduced MTS at 490 nm, Trial 2: 0.9 optical density
  Absorbance of cell-reduced MTS at 490 nm, Trial 3: 0.7 optical density
  Average absorbance of cell-reduced MTS at 490 nm: 0.8 optical density
  Corrected average absorbance of cell-reduced MTS at 490 nm: 0.6 optical density
600 ppm
  % of control (MTS reduction relative to PBS only control): 900%
  Absorbance of cell-reduced MTS at 490 nm, Trial 1: 1.2 optical density
  Absorbance of cell-reduced MTS at 490 nm, Trial 2: 1.1 optical density
  Absorbance of cell-reduced MTS at 490 nm, Trial 3: 0.9 optical density
  Average absorbance of cell-reduced MTS at 490 nm: 1.1 optical density
  Corrected average absorbance of cell-reduced MTS at 490 nm: 0.9 optical density
At concentrations of 50 ppm or less
  cell toxicity (MTS assay, Table II): does not result in significant cell toxicity
